The IC50 is the concentration needed to halve the response being measured.

The source of these data is US12258344B2, “Azaaromatic amide derivatives for the treatment of cancer” (SHENZHEN FORWARD PHARMACEUTICALS CO., LTD., priority 2019, dated 2025).

Experiment [1] concerns the target T1, BaF3 (EGFR/D770insSVD) (Homo sapiens, UniProt P00533, cells depend on it, form not given).
T1 construct: other: A763insFQEA, V769ins
The experiment is described as follows: Test 13: EGFR exon 20 inserted D770insSVD cell proliferation test. The class given is cell-based. Conditions: A763insFQEA, V769insASV, D770insSVD (tests 13-15), in words. The procedure, abridged:
(§1)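 BaF3 cells expressing EGFR D770insSVD, 3,000 cells/well, seeded overnight at 37° C, 5% CO2, then exposed to serially diluted compound for 72 h. Viable cells read by CellTiter-Glo luminescence; values from curve fitting.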

In experiment [2] the target is T2, BaF3 (EGFR/D770insSVD) (Homo sapiens, UniProt P00533, DUP768-770, cells depend on it).
T2 construct: Test 13 IC50 (nM); other: BaF3 (EGFR/D770insSVD), 72 hours, Cell Titer-Glo
The description is as above. The class given is cell-based. Conditions: BaF3 (EGFR/D770insSVD), 72 hours, Cell Titer-Glo; read-out: Test 13 IC50. The procedure, abridged:
as §1
For orientation: ATP-based viability assays read luminescence as a measure of living cells.

For another experiment, the target named is BaF3 (EGFR/A763insFQEA) (Homo sapiens, UniProt P00533, INS763FQEA, cells depend on it). The experiment is described as follows: Test 14: EGFR exon 20 inserted A763insFQEA cell proliferation test. It is filed as cell-based. Conditions: 72 hours, Cell Titer-Glo, read-out: Test 14 IC50. The procedure, abridged:
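BaF3 cells dependent on EGFR A763insFQEA, plated at 3,000 cells/well and cultured overnight at 37 °C, 5% CO2, then exposed to compound serial dilutions in DMSO for 72 h. Viable cells quantified by CellTiter-Glo luminescence; values from curve fitting.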

The target in another experiment is BaF3 (EGFR/V769insASV) (Homo sapiens, UniProt P00533, DUP767-769, cells depend on it). The experiment is described as follows: Test 15: EGFR exon 20 inserted V769insASV cell proliferation test. The class given is cell-based. Conditions: 72 hours, Cell Titer-Glo, read-out: Test 15 IC50. The procedure, abridged: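 BaF3 cells expressing EGFR V769insASV (3000 cells/well) plated overnight, then exposed to DMSO-diluted compound series for 72 h at 37 °C, 5% CO2. Viability by CellTiter-Glo luminescence; values from curve fitting.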

The target in experiment [3] is T3, BaF3 (EGFR/N771insH) (Homo sapiens, UniProt P00533, cells depend on it, form not given).
T3 construct: other: N771insH, D770insNPG
The experiment in a line: Test 16: EGFR exon 20 inserted N771insH cell proliferation test. The class given is cell-based. Conditions: N771insH, D770insNPG, V774insHV (tests 16-18), in words.

Experiment [4] has as its target T4, BaF3 (EGFR/N771insH) (Homo sapiens, UniProt P00533, cells depend on it, form not given).
T4 construct: Test 16 IC50 (nM); other: BaF3 (EGFR/N771insH), 72 hours, Cell Titer-Glo
The description is as above. The class given is cell-based. Conditions: BaF3 (EGFR/N771insH), 72 hours, Cell Titer-Glo; read-out: Test 16 IC50.

The next experiment deals with BaF3 (EGFR/D770insNPG) (Homo sapiens, UniProt P00533, cells depend on it, form not given). The experiment in a line: Test 17: EGFR exon 20 inserted D770insNPG cell proliferation test. It is filed as cell-based. Conditions: 72 hours, Cell Titer-Glo, read-out: Test 17 IC50. The method, then: Test 17: EGFR Exon 20 Inserted D770insNPG Cell Proliferation Test
(§2) The number of viable cells in the culture was measured according to the protocol described in Promega's Cell Titer-Glo Luminescent cell Viability Assay (Promega catalog number #G7570). 90 μl of cells (3,000 cells/well) were cultured in growth medium in a Corning black transparent bottom 96-well plate, and cultured in a 5% CO2 humidified incubator at 37° C. overnight. The compound serially diluted in 100% DMSO was added to the cells using a pipette, and the cells were incubated for another 72 hours. 100 μl of the mixed Cell Titer-Glo reagent was added to the cells in the 96-well culture plate to lyse the cells and mix gently. Subsequently, the […] was detected on the Envision microplate detector to obtain the data of each compound. Finally, the data was input into a suitable software package (such as Prism) for curve fitting analysis.

The target in a further experiment is BaF3 (EGFR/V774insHV) (Homo sapiens, UniProt P00533, cells depend on it, form not given). The experiment is described as follows: Test 18: EGFR exon 20 inserted V774insHV cell proliferation test. The class given is cell-based. Conditions: 72 hours, Cell Titer-Glo, read-out: Test 18 IC50. The method, then:
as §2

Experiment [5] deals with T5, BaF3 (EGFR/S768I) (Homo sapiens, UniProt P00533, cells depend on it, form not given).
T5 construct: other: BaF3 (EGFR/S768I), 72 hours, Cell Titer-Glo
The experiment is described as follows: Test 19: EGFR/S768I mutant cell line proliferation test. It is filed as cell-based. Conditions: BaF3 (EGFR/S768I), 72 hours, Cell Titer-Glo; read-out: Test 19 IC50. As for the experimental part: (§3) Test 19: EGFR/S768I Mutant Cell Line Proliferation Test
as §2

For experiment [6], the target named is T6, BaF3 (EGFR/S768I) (Homo sapiens, UniProt P00533, cells depend on it, form not given).
T6 construct: other: EGFR S768I and EGFR L8
The description is as above. The class given is cell-based. Conditions: EGFR S768I and EGFR L861Q (tests 19-20), in words. As for the experimental part:
as §3, §2

The next experiment concerns the target BaF3 (EGFR/L861Q) (Homo sapiens, UniProt P00533, cells depend on it, form not given). The experiment is described as follows: Test 20: EGFR/L861Q mutant cell line proliferation test. The class given is cell-based. Conditions: 72 hours, Cell Titer-Glo, read-out: Test 20 IC50. The method, then: as §2, with “The compound serially diluted in 100% DMSO was added to the cells using a pipette, and the cells were incubated for another 72 hours.” left out

Another experiment has as its target T7, BaF3 (HER2/A775insYVMA) (Homo sapiens, UniProt P04626, cells depend on it, form not given).
T7 construct: other: BaF3 (HER2/A775insYVMA), 72 hours, Cell Titer-Glo
The experiment is described as follows: Test 21: HER2 exon 20 inserted A775insYVMA cell proliferation test. Conditions: BaF3 (HER2/A775insYVMA), 72 hours, Cell Titer-Glo; read-out: test 21 IC50. The class given is cell-based. The method, then:
Test 21: HER2 Exon 20 Inserted A775insYVMA Cell Proliferation Test
as §2

A further experiment concerns the target BaF3 (HER2/P780insGSP) (Homo sapiens, UniProt P04626, cells depend on it, form not given). The experiment is described as follows: Test 22: HER2 exon 20 inserted P780insGSP cell proliferation test. The class given is cell-based. Conditions: 72 hours, Cell Titer-Glo, read-out: test 22 IC50. The method, then: Test 22: HER2 Exon 20 Inserted P780insGSP Cell Proliferation Test
The engineered cell line BaF3 (HER2/P780insGSP) was constructed by the inventor himself (for the method of cell line construction, see Jingrui Jiang et al., Cancer Res. 2005 Oct. 1; 65 (19): 8964-74; Jacqulyne P. Robichaux et al., Nat Med. 2018 May; 24 (5): 638-646). BaF3 (HER2/P780insGSP) was cultured in RPMI 1640 medium containing 10% fetal bovine serum and 2 mM glutamine, and the cells were grown at 37° C. in a humidified incubator with 5% CO2.
as §2

A further experiment deals with BaF3 (HER2/G776insVC) (Homo sapiens, UniProt P04626, cells depend on it, form not given). The experiment in a line: Test 23: HER2 exon 20 inserted G776insVC cell proliferation test. Conditions: 72 hours, Cell Titer-Glo, read-out: test 23 IC50. It is filed as cell-based. The method, then: Test 23: HER2 Exon 20 Inserted G776insVC Cell Proliferation Test
as §2

A further experiment has as its target T8, HER4 kinase (Homo sapiens, UniProt Q15303).
T8 construct: made in house
The experiment is described as follows: Test 24: HER4 kinase inhibition test. It is filed as biochemical. The method, then: Test 24: HER4 Kinase Inhibition Test
Next, 100% DMSO was used to formulate the test compound into a solution of 50× at the final test concentration, and then sequentially diluted to 10 test concentrations; 100 μL of 100% DMSO was added to the blank control well as a negative control group without the compound and kinase. […] Finally, 10 μL of 2.5× peptide solution was added to the 384-well plate. After incubating at 25° C. for 10 minutes, 25 μL of reaction stop solution was added. Finally, the absorbance was detected on the Envision microplate detector to obtain the data of each compound. Finally, the data was input into a suitable software package (such as Prism) for curve fitting analysis.

T8 sequence (Q15303 26-1308): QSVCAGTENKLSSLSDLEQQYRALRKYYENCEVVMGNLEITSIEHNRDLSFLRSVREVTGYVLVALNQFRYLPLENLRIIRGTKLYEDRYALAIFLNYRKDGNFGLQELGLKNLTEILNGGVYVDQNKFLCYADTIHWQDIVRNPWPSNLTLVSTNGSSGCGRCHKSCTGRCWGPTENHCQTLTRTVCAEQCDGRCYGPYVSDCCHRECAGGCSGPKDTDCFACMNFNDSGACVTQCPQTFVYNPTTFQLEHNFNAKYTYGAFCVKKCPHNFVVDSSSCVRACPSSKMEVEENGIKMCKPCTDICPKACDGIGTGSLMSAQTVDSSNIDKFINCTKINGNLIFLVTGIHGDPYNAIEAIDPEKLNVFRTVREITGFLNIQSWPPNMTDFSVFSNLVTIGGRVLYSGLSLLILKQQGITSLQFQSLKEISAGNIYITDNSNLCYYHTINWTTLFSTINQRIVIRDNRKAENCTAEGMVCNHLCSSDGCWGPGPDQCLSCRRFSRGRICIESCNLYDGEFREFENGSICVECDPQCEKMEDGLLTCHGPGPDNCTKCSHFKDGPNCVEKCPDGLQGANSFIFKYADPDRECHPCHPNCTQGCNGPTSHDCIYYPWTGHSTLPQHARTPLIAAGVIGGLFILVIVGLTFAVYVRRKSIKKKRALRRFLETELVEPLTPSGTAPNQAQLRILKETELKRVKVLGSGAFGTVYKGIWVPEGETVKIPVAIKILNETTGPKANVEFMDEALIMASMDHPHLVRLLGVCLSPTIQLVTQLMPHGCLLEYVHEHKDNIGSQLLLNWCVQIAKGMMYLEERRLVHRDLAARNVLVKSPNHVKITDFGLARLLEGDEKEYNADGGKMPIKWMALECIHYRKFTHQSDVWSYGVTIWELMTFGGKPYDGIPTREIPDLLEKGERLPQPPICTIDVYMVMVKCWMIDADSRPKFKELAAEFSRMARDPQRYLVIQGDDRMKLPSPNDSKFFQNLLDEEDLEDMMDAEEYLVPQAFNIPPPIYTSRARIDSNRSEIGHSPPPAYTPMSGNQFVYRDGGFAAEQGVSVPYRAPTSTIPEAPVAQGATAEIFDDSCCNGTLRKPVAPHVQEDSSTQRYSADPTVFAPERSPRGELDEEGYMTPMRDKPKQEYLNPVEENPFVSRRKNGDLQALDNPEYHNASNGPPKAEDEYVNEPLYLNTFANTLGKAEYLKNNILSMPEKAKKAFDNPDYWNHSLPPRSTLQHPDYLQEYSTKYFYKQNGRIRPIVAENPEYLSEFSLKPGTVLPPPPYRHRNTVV
T7 sequence (P04626 with tags, fused parts or gaps DUP778-780): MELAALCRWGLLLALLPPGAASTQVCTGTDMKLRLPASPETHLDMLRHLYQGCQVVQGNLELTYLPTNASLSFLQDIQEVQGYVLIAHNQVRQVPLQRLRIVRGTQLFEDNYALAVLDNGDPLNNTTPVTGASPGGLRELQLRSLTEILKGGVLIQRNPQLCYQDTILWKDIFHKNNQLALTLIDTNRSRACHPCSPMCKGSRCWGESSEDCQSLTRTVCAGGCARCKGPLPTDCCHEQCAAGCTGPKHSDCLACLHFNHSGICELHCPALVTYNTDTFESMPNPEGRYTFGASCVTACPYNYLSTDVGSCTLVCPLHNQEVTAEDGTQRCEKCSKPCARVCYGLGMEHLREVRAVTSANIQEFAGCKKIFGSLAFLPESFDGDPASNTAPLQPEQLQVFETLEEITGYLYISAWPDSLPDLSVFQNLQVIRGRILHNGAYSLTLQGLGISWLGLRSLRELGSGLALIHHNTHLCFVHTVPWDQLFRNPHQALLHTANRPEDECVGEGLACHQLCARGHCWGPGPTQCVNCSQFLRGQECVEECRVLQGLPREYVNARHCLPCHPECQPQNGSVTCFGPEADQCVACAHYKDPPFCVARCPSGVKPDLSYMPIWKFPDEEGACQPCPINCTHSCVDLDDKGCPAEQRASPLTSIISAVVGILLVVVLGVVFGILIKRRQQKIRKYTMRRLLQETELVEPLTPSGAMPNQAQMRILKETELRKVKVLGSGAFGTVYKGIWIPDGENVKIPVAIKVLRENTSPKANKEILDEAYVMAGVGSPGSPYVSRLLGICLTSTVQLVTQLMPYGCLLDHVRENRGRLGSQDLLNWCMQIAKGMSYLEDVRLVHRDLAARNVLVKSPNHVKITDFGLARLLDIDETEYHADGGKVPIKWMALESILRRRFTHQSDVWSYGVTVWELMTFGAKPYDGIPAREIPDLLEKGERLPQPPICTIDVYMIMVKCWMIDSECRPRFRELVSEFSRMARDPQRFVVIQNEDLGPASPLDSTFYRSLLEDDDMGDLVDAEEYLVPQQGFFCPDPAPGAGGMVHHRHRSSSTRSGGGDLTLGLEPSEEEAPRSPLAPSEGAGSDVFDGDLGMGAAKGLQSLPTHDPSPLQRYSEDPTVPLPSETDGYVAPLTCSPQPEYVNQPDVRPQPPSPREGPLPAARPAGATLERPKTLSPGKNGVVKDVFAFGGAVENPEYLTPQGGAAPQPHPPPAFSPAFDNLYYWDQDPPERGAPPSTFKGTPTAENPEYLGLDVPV
BaF3 (HER2/G776insVC), sequence (P04626 with tags, fused parts or gaps DUP772-775): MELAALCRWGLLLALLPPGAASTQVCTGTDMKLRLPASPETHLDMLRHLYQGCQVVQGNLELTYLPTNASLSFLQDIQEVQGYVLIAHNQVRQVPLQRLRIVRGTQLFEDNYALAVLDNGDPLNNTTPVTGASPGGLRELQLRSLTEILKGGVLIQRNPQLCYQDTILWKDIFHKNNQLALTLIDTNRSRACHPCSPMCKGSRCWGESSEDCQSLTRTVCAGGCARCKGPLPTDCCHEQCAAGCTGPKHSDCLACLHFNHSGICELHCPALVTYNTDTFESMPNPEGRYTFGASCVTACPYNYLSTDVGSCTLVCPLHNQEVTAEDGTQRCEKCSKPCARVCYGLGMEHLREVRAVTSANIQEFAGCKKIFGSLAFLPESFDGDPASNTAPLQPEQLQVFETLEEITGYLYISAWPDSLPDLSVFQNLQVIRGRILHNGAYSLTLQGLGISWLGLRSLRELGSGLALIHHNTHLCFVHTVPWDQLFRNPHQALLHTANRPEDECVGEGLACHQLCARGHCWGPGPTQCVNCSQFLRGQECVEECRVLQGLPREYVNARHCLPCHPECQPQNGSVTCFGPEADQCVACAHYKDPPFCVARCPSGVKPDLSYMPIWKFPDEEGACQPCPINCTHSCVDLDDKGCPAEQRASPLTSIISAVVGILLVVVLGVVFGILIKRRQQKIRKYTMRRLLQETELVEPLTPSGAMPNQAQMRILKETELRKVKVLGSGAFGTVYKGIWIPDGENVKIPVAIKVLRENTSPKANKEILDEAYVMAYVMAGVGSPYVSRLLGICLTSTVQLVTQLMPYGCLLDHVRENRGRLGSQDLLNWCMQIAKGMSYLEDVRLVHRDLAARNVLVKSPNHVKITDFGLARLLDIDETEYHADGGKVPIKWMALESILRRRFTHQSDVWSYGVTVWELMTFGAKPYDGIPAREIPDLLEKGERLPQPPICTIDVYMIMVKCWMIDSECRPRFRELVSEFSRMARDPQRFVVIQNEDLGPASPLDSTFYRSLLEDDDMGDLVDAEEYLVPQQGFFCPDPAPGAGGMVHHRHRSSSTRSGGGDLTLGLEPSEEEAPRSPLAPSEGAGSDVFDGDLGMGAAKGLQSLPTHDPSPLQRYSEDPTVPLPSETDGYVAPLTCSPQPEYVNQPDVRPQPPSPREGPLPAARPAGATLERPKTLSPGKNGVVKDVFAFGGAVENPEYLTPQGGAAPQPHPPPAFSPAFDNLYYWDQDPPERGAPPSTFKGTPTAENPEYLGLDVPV
BaF3 (HER2/P780insGSP), sequence (P04626 with tags, fused parts or gaps DELINS776-776VC): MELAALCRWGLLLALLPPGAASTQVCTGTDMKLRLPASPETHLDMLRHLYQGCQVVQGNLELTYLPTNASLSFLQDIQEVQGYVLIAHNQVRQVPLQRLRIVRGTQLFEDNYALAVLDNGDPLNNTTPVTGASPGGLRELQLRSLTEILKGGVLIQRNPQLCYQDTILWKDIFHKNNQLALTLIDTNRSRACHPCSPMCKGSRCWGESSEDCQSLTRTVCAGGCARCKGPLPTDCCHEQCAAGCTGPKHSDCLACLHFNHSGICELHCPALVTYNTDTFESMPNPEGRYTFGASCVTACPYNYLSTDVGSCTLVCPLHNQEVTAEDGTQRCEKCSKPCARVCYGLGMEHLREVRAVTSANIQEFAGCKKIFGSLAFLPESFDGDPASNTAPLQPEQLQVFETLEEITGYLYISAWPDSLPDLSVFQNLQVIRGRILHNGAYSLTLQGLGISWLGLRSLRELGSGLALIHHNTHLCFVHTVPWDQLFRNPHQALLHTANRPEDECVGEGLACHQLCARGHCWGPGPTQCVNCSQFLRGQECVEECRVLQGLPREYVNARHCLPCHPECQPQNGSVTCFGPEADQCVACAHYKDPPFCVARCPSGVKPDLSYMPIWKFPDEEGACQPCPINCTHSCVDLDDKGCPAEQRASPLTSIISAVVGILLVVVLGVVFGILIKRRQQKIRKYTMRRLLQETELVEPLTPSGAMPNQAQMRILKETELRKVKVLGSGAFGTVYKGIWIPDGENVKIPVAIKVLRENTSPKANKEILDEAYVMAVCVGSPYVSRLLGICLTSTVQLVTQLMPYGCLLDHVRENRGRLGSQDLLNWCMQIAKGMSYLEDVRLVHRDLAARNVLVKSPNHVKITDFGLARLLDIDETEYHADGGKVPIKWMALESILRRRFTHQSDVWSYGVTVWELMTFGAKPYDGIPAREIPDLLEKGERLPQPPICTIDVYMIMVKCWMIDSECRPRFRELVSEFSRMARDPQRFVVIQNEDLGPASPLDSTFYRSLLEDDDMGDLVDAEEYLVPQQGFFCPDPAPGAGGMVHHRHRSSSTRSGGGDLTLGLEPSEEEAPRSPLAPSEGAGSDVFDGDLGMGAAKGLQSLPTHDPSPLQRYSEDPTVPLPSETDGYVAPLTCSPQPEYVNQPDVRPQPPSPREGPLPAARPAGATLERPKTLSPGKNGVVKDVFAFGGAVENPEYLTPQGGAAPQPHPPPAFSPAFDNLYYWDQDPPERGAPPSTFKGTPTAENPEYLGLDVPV

`C=CC(=O)Nc1cc(Nc2ncnc(-c3cn(C)c4ccccc34)n2)c(OC)cc1N(C)CCN(C)C` [Compound 16]: the “cell activity compared with Osimertinib (AZD9291) against EGFR exon 20 insertion mutations” value at BaF3 (EGFR/D770insSVD) [1] is given as “significant superior cell activity over Osimertinib (AZD9291)”; on BaF3 (EGFR/N771insH) [3] it was “significantly superior cell activity over Osimertinib (AZD9291)”. The GI50 at BaF3 (EGFR/D770insSVD) [2] amounted to 35.8 nM; on BaF3 (EGFR/A763insFQEA) it was 12.8 nM; at BaF3 (EGFR/V769insASV), 24.8 nM; on BaF3 (EGFR/N771insH) [4] it was 8.67 nM; on BaF3 (EGFR/D770insNPG), 4.69 nM; on BaF3 (EGFR/V774insHV), 7.59 nM. Also, the GI50 on BaF3 (EGFR/S768I) [5] is 8.63 nM; at BaF3 (EGFR/L861Q) it was 21.6 nM; on BaF3 (HER2/A775insYVMA), 7.67 nM; on BaF3 (HER2/P780insGSP), 1.64 nM; on BaF3 (HER2/G776insVC) it was 12 nM. Also, the “activity compared with Osimertinib (AZD9291) against EGFR S768I and EGFR L861Q mutations” value at BaF3 (EGFR/S768I) [6] is reported as “superior activity over Osimertinib (AZD9291)”. Also, the “IC50 value lower than that of Osimertinib (AZD9291)” value on HER4 kinase (HER4 kinase) is given as “about 1 fold”. In addition, the IC50 on HER4 kinase (HER4 kinase inhibition test, read-out: Test 12 HER4 IC50) worked out at 29 nM.
